Reference: patent publication US20190390161A1, “CULTURE MEDIUM COMPRISING OLIGOPEPTIDES” (Evonik Degussa GmbH, priority 2017, published 2019)
Marks after values point to notes of the source that are not given here. Bridge positions count the residues as written; N and C are the ends. Peptide text beside a SMILES is read from it. I, II: the chains in the order shown.

What was measured:
plasmin = plasmin (Homo sapiens, UniProt P00747); conditions: Chemical & Pharmaceutical Bulletin 22, 2680 (1974); cited from earlier work
[1] = test system: antibody producing Chinese Hamster Ovary (CHO) cells (Subclone DG44); assay: Experiment 1: cell growth (VCD) in TC-42 media, cysteine/cystine or leucine replaced by dipeptides; assay type: cell-based; set-up: Viable cell densities (VCD) / maximum cell densities (max. VCD): unit not given here; conditions: for maximum cell densities (max. VCD) / Viable cell densities (VCD): TC-42 media of table 2; for cell growth performance compared with reference medium (FIG. 1): same molar amount of cysteine and cystine in the form of dipeptides
From the text: The influence of the L-lysine dipeptides on the growth of antibody producing Chinese Hamster Ovary (CHO) cells (Subclone DG44; Life Technologies Cooperation, Carslbad, USA) in comparison to media containing either the corresponding free amino acids or the corresponding L-alanine dipeptides was investigated. For this purpose, the cells were cultivated in a TC-42 media produced by Xell AG, Bielefeld, Germany in which the amino acids provided within the experiments by dipeptides were lacking. The concentrations of these amino acids were adjusted in such a way that, taking into account a complete hydrolysis of the dipeptides into the amino acids, the concentration of all amino acids were the same in all media tested within this experiment. […] Experiment 1: Comparison of the Cell Growths Obtained with TC-42 media in which L-cysteine/L-cystine is replaced by bis-L-alanyl-L-cystine, bis-L-prolyl-L-cystine or bis-L-lysyl-L-cystine and L-leucine is replaced by […] For this experiment a TC-42 media produced by Xell AG, Bielefeld, Germany in which […]-cystine and L-leucine were deliberately left out of the initial formulation. […] [table]

[2] = test system: antibody producing Chinese Hamster Ovary (CHO) cells (Subclone DG44); assay: Antibody production (final antibody titer) in TC-42 media; assay type: cell-based; conditions: compared with cells cultured in reference media; 24 days (FIG. 4)
From the text: FIG. 4 depicts the final antibody titer with TC-42 media obtained with oligopeptides according to the invention.
The influence of the L-lysine dipeptides on the growth of antibody producing Chinese Hamster Ovary (CHO) cells (Subclone DG44; Life Technologies Cooperation, Carslbad, USA) in comparison to media containing either the corresponding free amino acids or the corresponding L-alanine dipeptides was investigated. For this purpose, the cells were cultivated in a TC-42 media produced by Xell AG, Bielefeld, Germany in which the amino acids provided within the experiments by dipeptides were lacking. The concentrations of these amino acids were adjusted in such a way that, taking into account a complete hydrolysis of the dipeptides into the amino acids, the concentration of all amino acids were the same in all media tested within this experiment.
Additionally, the effect on antibody production was analysed comparing cells cultured in reference media and cells growing in a media containing the dipeptides bis-alanyl-L-cystine or […] for 24 days (FIG. 4).

[3] = cited from earlier work
[4] = Solubility found for Lys-Xxx dipeptides; conditions: for Solubility Lys-Xxx found: as hydrochloride or as acetate (footnotes 6, 7)

Chain of plasmin (P00747 581-810 limits assumed, species assumed): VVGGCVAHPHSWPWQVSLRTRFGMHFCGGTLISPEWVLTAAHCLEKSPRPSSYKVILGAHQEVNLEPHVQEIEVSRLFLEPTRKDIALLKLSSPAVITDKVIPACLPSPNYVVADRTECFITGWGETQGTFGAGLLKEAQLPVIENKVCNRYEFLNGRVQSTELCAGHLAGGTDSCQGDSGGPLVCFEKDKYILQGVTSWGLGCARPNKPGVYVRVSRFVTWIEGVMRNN
Chain of plasmin (P00747 97-580 partner limits assumed, species assumed): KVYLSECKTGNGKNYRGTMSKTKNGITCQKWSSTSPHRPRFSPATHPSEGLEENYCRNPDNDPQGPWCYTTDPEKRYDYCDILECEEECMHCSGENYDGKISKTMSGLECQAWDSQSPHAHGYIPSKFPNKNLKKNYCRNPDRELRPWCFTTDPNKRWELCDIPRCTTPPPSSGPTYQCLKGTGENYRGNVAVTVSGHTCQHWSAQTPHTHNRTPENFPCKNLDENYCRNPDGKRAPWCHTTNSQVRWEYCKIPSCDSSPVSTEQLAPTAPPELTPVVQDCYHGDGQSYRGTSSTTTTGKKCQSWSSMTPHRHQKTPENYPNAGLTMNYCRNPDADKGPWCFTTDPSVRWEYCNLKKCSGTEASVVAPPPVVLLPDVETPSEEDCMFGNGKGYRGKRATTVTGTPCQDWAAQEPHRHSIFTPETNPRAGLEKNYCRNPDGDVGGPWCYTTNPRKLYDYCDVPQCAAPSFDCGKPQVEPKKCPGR

Compound	maximum cell densities (max. VCD) [1]	Viable cell densities (VCD) ([1]; Time 0.0)	Viable cell densities (VCD) ([1]; Time 0.7)	Viable cell densities (VCD) ([1]; Time 2.0)	Viable cell densities (VCD) ([1]; Time 2.7)	Viable cell densities (VCD) ([1]; Time 3.6)	Viable cell densities (VCD) ([1]; Time 3.7)	Viable cell densities (VCD) ([1]; Time 4.7)	Viable cell densities (VCD) ([1]; Time 5.8)	Viable cell densities (VCD) ([1]; Time 6.7)	Viable cell densities (VCD) ([1]; Time 6.8)	Viable cell densities (VCD) ([1]; Time 7.8)	Viable cell densities (VCD) ([1]; Time 8.7)	Viable cell densities (VCD) ([1]; Time 9.7)	Viable cell densities (VCD) ([1]; Time 10.6)	Viable cell densities (VCD) ([1]; Time 11.6)	Viable cell densities (VCD) ([1]; Time 12.8)	Viable cell densities (VCD) ([1]; Time 13.6)	Viable cell densities (VCD) ([1]; Time 15.0)	Viable cell densities (VCD) ([1]; Time 15.9)	also measured
Lys-Lys [reference compound]	–	–	–	–	–	–	–	–	–	–	–	–	–	–	–	–	–	–	–	–	cleavage (hydrolysis) by plasmin (plasmin): none of these peptides were cleaved
Bis-L-alanyl-L-cystine [Ala2-Cyss, reference compound]	15.06	0.26	0.42	0.47	0.67	0.84	0.36	0.71	1.52	2.34	0.32	0.48	1.06	1.79	3.19	4.89	7.65	10.01	11.62	15.06	Viable cell densities (VCD) ([1]; Time 16.7): 14.38; Viable cell densities (VCD) ([1]; Time 17.8): 14.05; Viable cell densities (VCD) ([1]; Time 18.7): 14.28; cell growth performance compared with reference medium (FIG. 1) [1]: the cells were able to utilize the peptides for growth; antibody production increased by [2]: at least 30%; Solubility Ala-Xxx ([3]; Degussa product brochure, cystine value WO 2011/133902): 8.7 ^2) g/1000 g solution; solubility ([3]; prior art values, background): 15.3 g/ltr
CC(=O)O.CC(C)C[C@H](NC(=O)[C@@H](N)CCCCN)C(=O)O [Lys-Leu, L-Lysyl-L-leucine acetat] (H-Lys-Leu-OH)	12.43	0.33	0.39	0.59	0.81	0.92	0.34	0.56	0.94	1.40	0.30	0.45	0.79	1.24	1.81	2.38	3.12	3.66	4.52	5.47	Solubility Lys-Xxx found [4]: >330 ^7) g/1000 g solution; Viable cell densities (VCD) ([1]; Time 16.7): 6.10; Viable cell densities (VCD) ([1]; Time 17.8): 6.03; Viable cell densities (VCD) ([1]; Time 18.7): 7.23; Viable cell densities (VCD) ([1]; Time 19.9): 10.51; Viable cell densities (VCD) ([1]; Time 20.7): 12.43; Viable cell densities (VCD) ([1]; Time 21.8): 12.15; Viable cell densities (VCD) ([1]; Time 22.8): 11.82; cleavage (hydrolysis) by plasmin (plasmin): none of these peptides were cleaved
NCCCC[C@H](N)C(=O)N[C@@H](CSSC[C@H](NC(=O)[C@@H](N)CCCCN)C(=O)O)C(=O)O [Lys2-Cyss, Bis-L-lysyl-L-cystine × 4HCl] (I: H-Lys-Cys-OH / II: H-Lys-Cys-OH; disulfide I:2-II:2)	14.16	0.31	0.39	0.54	0.83	1.02	0.39	0.62	1.18	1.98	0.30	0.43	0.98	1.82	2.88	4.75	6.68	9.20	11.93	13.66	Solubility Lys-Xxx found [4]: >500 ^6) g/1000 g solution; solubility found ([4]; hydrochloride): > 50 % (w/w); Viable cell densities (VCD) ([1]; Time 16.7): 13.41; Viable cell densities (VCD) ([1]; Time 17.8): 14.16; Viable cell densities (VCD) ([1]; Time 18.7): 14.15; cell growth performance compared with reference medium (FIG. 1) [1]: performance comparable to bis-alanyl-L-cystine; antibody production increased by [2]: ~50%
